Results on nine compounds are retold here after patent US20090012052A1, “METHOD FOR TREATING ER+ BREAST CANCER” (Ore Pharmaceuticals Inc., priority 2006, published 2009).

Assay [1] deals with T47D cells. Briefly: Cell proliferation assay (RT-CES impedance), ER+ cell line T47D. The note with it: for Effect on Ang II-induced growth / Effect on Ang II-induced cell proliferation: T47D. The format is cell-based, human. As to the method:
(§1) Unless otherwise indicated, cell proliferation assays described in Examples 2-5 were performed using a Real-Time Cell Electronic Sensing (RT-CES™ 96×) instrument from ACEA Bioscience (San Diego, Calif.). This instrument utilizes an electronic readout (impedance) to non-invasively quantify adherent cell proliferation and viability in real time.
(§2) Cells were seeded in 96-well microtiter plates containing microelectronic sensor arrays (96E plates; ACEA). Cells were maintained in RPMI 1640 (Invitrogen, Carlsbad, Calif.) supplemented with 10% fetal bovine serum (FBS) (Hyclone, Logan, Utah) and were cultured at 37° C. in a humidified atmosphere containing 5% CO2. For proliferation assays, cells were seeded (20,000 cells/well), allowed to attach and grown overnight in standard growth medium. Cells were then serum-starved for 8 hours prior to the proliferation assay in presence or absence of test compound(s). The proliferation response was continuously monitored by measuring the impedance change in each well for the indicated number of hours. Data are expressed as cell index (CI) change relative to time in culture, reflecting measured changes in electrical impedance. Each value shown is an average of 6 wells. Where shown, statistical analysis was performed by calculation of standard deviation and P values were generated by a Student's two-tailed t-test.
(§3) T47D (American Type Culture Collection, Manassas, Va. (ATCC) cat. HTB-133) is an ER+ cell line derived from human mammary gland ductal carcinoma. Other ER+ cell lines used in studies reported herein include ZR-75 and HCC70. HCC1143 (ATCC cat. CRL-2321) is an ER− cell line also derived from human mammary gland ductal carcinoma.
(§4) Following the 8 hour starvation phase, either Ang II (Sigma-Aldrich), 500 nM, or vehicle control was added to the cell culture. […] Ang II also stimulated proliferation of ER+ cell lines HCC70, by approximately 30%, and ZR-75, by approximately 35%, relative to vehicle control (data not shown).
(§5) A cell proliferation assay procedure was followed as described in Example 2. Following the 8 hour starvation phase, either Ang II (Sigma-Aldrich), 500 nM, with or without the AT1 receptor antagonist telmisartan, 1.25 μM or 5 μM, or vehicle control was added to the cell culture.
(§6) A cell proliferation assay procedure was followed as described in Example 2. Following the 8 hour starvation phase, either Ang II (Sigma-Aldrich), 500 nM, with or without the AT1 receptor antagonist candesartan, 5 μM, or vehicle control was added to the cell culture.
(§7) A cell proliferation assay procedure was followed as described in Example 2. Following the 8 hour starvation phase, either Ang II (Sigma-Aldrich), 500 nM, with or without the AT1 receptor antagonist irbesartan, 5 μM, or vehicle control was added to the cell culture.
A cell proliferation assay was conducted by a procedure substantially as described in Example 2, using the ER+ human breast cancer cell line T47D. Following an eight-hour serum starvation phase, test substance was added to the cell culture to provide each of the following treatments: […]

Assay [2] deals with HCC1143 cells. Put plainly: Cell proliferation assay (RT-CES impedance), ER- cell line HCC1143. The format is cell-based, human. Particulars: for Effect on cell proliferation: HCC1143. Here is the method:
as §1, §2, §3, §4, §5, §6, §7

For assay [3], the system named is HCC70 cells. Briefly: Cell proliferation assay (RT-CES impedance), ER+ cell line HCC70. The format is cell-based, human. As to the method:
as §1
as §2, with “t-test. […]” for “t-test.”

Assay [4] has as its system ZR-75 cells. Briefly: Cell proliferation assay (RT-CES impedance), ER+ cell line ZR-75. The format is cell-based, human. As to the method:
as §1
as §2, with “t-test. […]” for “t-test.”

Assay [5] deals with HCC1395 cells. Briefly: Cell proliferation assay (RT-CES impedance), cell line HCC1395. The format is cell-based, human. Here is the method:
as §1
as §2, with “t-test. […]” for “t-test.”

Assay [6] relates to HCC1954 cells. Briefly: Cell proliferation assay (RT-CES impedance), cell line HCC1954. The format is cell-based, human. As to the method: as §1
as §2, with “t-test. […]” for “t-test.”

Assay [7] deals with HCC1937 cells. Put plainly: Cell proliferation assay (RT-CES impedance), cell line HCC1937. The format is cell-based, human. As to the method:
as §1
as §2, with “t-test. […]” for “t-test.”

Assay [8] deals with HCC38 cells. Briefly: Cell proliferation assay (RT-CES impedance), cell line HCC38. The format is cell-based, human. As to the method:
as §1
as §2, with “t-test. […]” for “t-test.”

Assay [9] concerns T47D cell line. Particulars: cited from earlier work.
Assay [10] has as its system cells cultured from invasive ductal carcinomas. The note with it: cited from earlier work.
Assay [11] has as its system breast cancer epithelial cell line MCF-7. Particulars: cited from earlier work.
The test system of assay [12] is ER. The note with it: T47D (ER+, PR+) cells; cited from earlier work.
Assay [13] concerns PR. The note with it: T47D (ER+, PR+) cells; cited from earlier work.
Assay [14] relates to T47D cells. The note with it: cited from earlier work.
Assay [15] has as its system T47D (human ER+ breast cancer cell line) xenografts. Briefly: Growth of ER+ breast cancer cell line (T47D) xenografts in mice. The format is in vivo. The note with it: NODscid mice with estrogen pellet; p.o. once daily 3-5 weeks; candesartan cilexetil 10/30/100, irbesartan 30/100/300, tamoxifen 0.1/0.3/1.0 mg/kg. Here is the method: Female NODscid mice of age 5-6 weeks received a subcutaneous estrogen pellet implant (1.7 mg). Twenty four hours after estrogen pellet implantation, the mice received tumor implantation by subcutaneous injection of T47D cells to the flank (approximately 2.5×10^6 cells/mouse). The mice were ear-notched for identification and housed 4 animals per cage. The tumor implantation site was palpated up to 3 times weekly to monitor tumor growth. One hundred animals in which tumor implantation was successful (7-12 days after injection) were randomized to ten treatment groups, 10 animals per group:
Tumors were measured 3 times weekly using digital calipers. Body weight was measured twice weekly. Clinical observations were conducted weekly. At the conclusion of the study or when mice attained a maximum tumor burden of about 3.0 cm^3 or about 10% of body weight, the mice were sacrificed, tumors were harvested and a terminal blood sample was collected.

For assay [16] the following is noted: administered for 5 years; women having risk factors; cited from earlier work.
The mark [17] stands for this setting: Ang II 500 nM with AT1 receptor antagonist 5 μM.
Setting [18] is: Ang II 500 nM with AT1 receptor antagonist 5 μM, data not shown.
The mark [19] stands for this setting: Ang II 500 nM with telmisartan 1.25 μM or 5 μM.

Entries after “also recorded” stand apart in the source; their conditions may differ.

Turning to `CCOc1nc2cccc(C(=O)O)c2n1Cc1ccc(-c2ccccc2-c2nnn[nH]2)cc1` [candesartan, 2-ethoxy-1-[4-[2-(1H-tetrazol-5-yl)phenyl]benzyl]-7-benzimidazole-carboxylic acid], the “Effect on Ang II-induced growth” value in [1] (setting [17]) is recorded as “significantly inhibited”. Further, the “Effect on cell proliferation” value in assay [2] (setting [18]) is given as “No effects”.

In the case of “Ang II: peptide angiotensin II, a major regulator of blood pressure and cardiovascular homeostasis (Sigma-Aldrich) (DRVYIHPF; Angiotensin-2; UniProt P01019 25-32, looked up)”, the “Effect of Ang II on cell growth/proliferation” value was “significantly stimulated growth; also recorded: substantial increase in cell proliferation” in [1] (T47D (ER+), Ang II 500 nM vs vehicle control, after 8 h serum starvation) and “No effects” in assay [2] (HCC1143 (ER-), Ang II 500 nM vs vehicle control). The “Ang II proliferation response” value in assay [1] (cell line T47D) is “positive”; in assay [2] (cell line HCC1143) it was “negative”; in [3] (cell line HCC70) it was “positive”; in assay [4] (cell line ZR-75), “positive”; in [5], “negative”; in [6] it was “negative”. Further, the “Ang II proliferation response” value in assay [7] and in assay [8] was “negative” throughout. In addition, the “Stimulation of proliferation relative to vehicle control” value is “approximately 30%” in assay [3] (HCC70 (ER+), Ang II 500 nM, data not shown) and “approximately 35%” in [4] (ZR-75 (ER+), Ang II 500 nM, data not shown). The “Stimulation of cell growth by Ang II” value in assay [9] is recorded as “significant stimulation of cell growth”. The “Proliferation stimulated by Ang II” value in [10] (ER and PR positive) was “stimulated in a dose-dependent manner”. In assay [11], the “Proliferative effect of Ang II” value is given as “dose-dependent proliferative effect”.

On to `NCCCC[C@H](N[C@@H](CCc1ccccc1)C(=O)O)C(=O)N1CCC[C@H]1C(=O)O` [lisinopril], for which the ER protein concentration result in assay [12] is recorded as “No such effects”. Besides, the PR protein concentration entry in assay [13] is recorded as “No such effects”. For the same compound, the “[3H]thymidine incorporation (an index of cell proliferation)” value in [14] is recorded as “No such effects”.

Turning to `CCCCC1=NC2(CCCC2)C(=O)N1Cc1ccc(-c2ccccc2-c2nnn[nH]2)cc1` [irbesartan, 2-n-butyl-4-spirocyclopentane-1-[(2′-(tetrazol-5-yl)bipheny-4-yl)methyl]-2-imidazolin-5-one], in [1] (setting [17]), the “Effect on Ang II-induced growth” value is “significantly inhibited”. Further, in assay [1] (irbesartan 5 μM + Ang II 500 nM), the “Effect on Ang II-induced cell proliferation” value is given as “reversed the Ang II effect”. In addition, in [2] (setting [18]), the “Effect on cell proliferation” value is given as “No effects”. In [15], the “Growth in tumor volume” value is listed as “the lowest dose tested (30 mg/kg) appeared to give the greatest effect”.

For `C[C@H](CS)C(=O)N1CCC[C@H]1C(=O)O` [Captopril], the ER protein concentration entry in [12] is “reduced”. For the same compound, the PR protein concentration result in assay [13] is given as “increased”. In assay [14], the “[3H]thymidine incorporation (an index of cell proliferation)” value is recorded as “inhibited”.

Turning to `CCOc1nc2cccc(C(=O)OC(C)OC(=O)OC3CCCCC3)c2n1Cc1ccc(-c2ccccc2-c2nnn[nH]2)cc1` (centres unmarked) [candesartan cilexetil], in [15], the “Growth in tumor volume” value was “reduced in a dose-dependent fashion”.

As to `CC/C(=C(\c1ccccc1)c1ccc(OCCN(C)C)cc1)c1ccccc1` [tamoxifen], in assay [1] (tamoxifen 7.5 μM + Ang II 500 nM), the “Effect on Ang II-induced cell proliferation” value is given as “reduced cell proliferation to a level lower than that of vehicle control”. Further, the “Growth in tumor volume” value in [15] is recorded as “reduced in a dose-dependent fashion”. For the same compound, the “Reduction of incidence of invasive breast cancer” value in assay [16] is on record as roughly 50%.

Take `CCCCc1nc(Cl)c(CO)n1Cc1ccc(-c2ccccc2-c2nnn[nH]2)cc1` [losartan, 2-n-butyl-4-chloro-5-hydroxymethyl-1-[[2′-(1H-tetrazol-5-yl)biphenyl-4-yl]methyl]imidazole]: the “Effect on Ang II-stimulated proliferation” value in assay [10] is given as “blocked”. Also, in assay [11], the “Effect on Ang II proliferative effect” value is “blocked”.

Turning to `CCCc1nc2c(C)cc(-c3nc4ccccc4n3C)cc2n1Cc1ccc(-c2ccccc2C(=O)O)cc1` [telmisartan, 4′-[[4-methyl-6-(1-methyl-2-benzimidazolyl)-2-propyl-1-benzimidazol-yl]methyl]-2-biphenylcarboxylic acid], the “Effect on Ang II-induced growth” value in [1] (setting [19]) was “significantly inhibited”. For the same compound, in [2] (setting [19]), the “Effect on cell proliferation” value is on record as “No effects”.
